Measured values published in publication doi:10.1101/2024.06.17.599304v1, “Dizocilpine derivatives with neuroprotective effect lacking the psychomimetic side effects” (biorxiv, 2024).
Structures can show the parent of a compound that is named as a salt.

Key:
[1] = molecular target: T1, human recombinant AChE (hAChE) (Homo sapiens, UniProt P22303); assay: modified Ellman's method; type: biochemical
T1 construct: recombinant enzyme purchased from Merck

hGluN1/hGluN2B [2] = molecular target: T2, hGluN1/hGluN2B (Homo sapiens, UniProt Q05586+Q13224); assay: cell-based; parameters: gene GRIN1; cDNA vectors for human GluN1-1a and GluN2B co-transfected with GFP in HEK293 cells; diheteromeric receptor; whole-cell voltage-clamp electrophysiology, inhibition of steady-state L-glutamate-induced currents at -60 mV; conditions: HEK293; -60 mV, 1 mM L-glutamate
Method: (§1) First, we determined the relative inhibition of all novel compounds on the two major diheteromeric NMDA receptor subtypes in the adult cortex – GluN1/GluN2A and GluN1/GluN2B [1] – using a clinically relevant concentration (3 µM). We kept the measured cells at a membrane potential of -60 mV, and the values of relative inhibition by the compounds were calculated from the L-glutamate-induced responses of human versions of the GluN1/GluN2A (hGluN1/hGluN2A) and GluN1/GluN2B (hGluN1/hGluN2B) receptors obtained under steady-state conditions. […] Specifically, in the case of hGluN1/hGluN2A receptors, we obtained relative inhibition values ranging from ∼5% for compound 3h to ∼93% for compound 6f, while for hGluN1/hGluN2B receptors, we measured values ranging from ∼3% for compound 3i to ∼92% for compound 6g at a fixed dose of 3 µM of the tested compound. […] It can be assumed that the positive and negative effects of a given inhibitor of the NMDA receptor in vivo are caused by their affinity and the kinetics of inhibition, in addition to their availability in the CNS. […] In further experiments, we generated concentration-response curves for 6f (0.03-10 µM) and 3l (0.3-300 µM) on both hGluN1/hGluN2A and hGluN1/hGluN2B receptors at negative (-60 mV) and positive (40 mV) membrane potentials (Fig. 2A-D). […] (A, C) Representative whole-cell voltage-clamp recordings of HEK293 cells expressing hGluN1/hGluN2A or hGluN1/hGluN2B receptors showing the inhibitory effects of compound 6f (0.03 - 300 µM) and compound 3l (0.3 - 300 µM) at membrane potentials of 40 mV (A) and -60 mV (C). Glu = 1 mM L-glutamate. (B, D) Normalized inhibitory concentration-response curves for compound 6f and compound 3l for hGluN1/hGluN2A and hGluN1/hGluN2B receptors at membrane potentials of 40 mV (B) and -60 mV (D). Concentration-response curves were fitted using Equation 1; the resulting IC50 values, Hill coefficients, and the numbers of cells measured for each membrane potential are shown in Table 3.

[3] = molecular target: T3, human plasmatic butyrylcholinesterase (hBChE) (Homo sapiens, UniProt P06276); assay: biochemical
T3 construct: gene BCHE

hGluN1/hGluN2A [4] = molecular target: T4, hGluN1/hGluN2A (Homo sapiens, UniProt Q05586+Q12879); parameters: gene GRIN1; conditions: -60 mV; 1 mM L-glutamate, 100 µM glycine; pH 7.3
hGluN1/hGluN2A [5] = molecular target: T4, hGluN1/hGluN2A; assay: cell-based; parameters: gene GRIN1; cDNA vectors for human GluN1-1a and GluN2A co-transfected with GFP in HEK293 cells; diheteromeric receptor; whole-cell voltage-clamp electrophysiology, inhibition of steady-state L-glutamate-induced currents at -60 mV; conditions: HEK293; -60 mV, 1 mM L-glutamate
Method: as §1

hGluN1/hGluN2B [6] = molecular target: T2, hGluN1/hGluN2B; parameters: gene GRIN1; conditions: -60 mV; 1 mM L-glutamate, 100 µM glycine; pH 7.3

T2 sequence (Q13224 27-1484, other chains not shown): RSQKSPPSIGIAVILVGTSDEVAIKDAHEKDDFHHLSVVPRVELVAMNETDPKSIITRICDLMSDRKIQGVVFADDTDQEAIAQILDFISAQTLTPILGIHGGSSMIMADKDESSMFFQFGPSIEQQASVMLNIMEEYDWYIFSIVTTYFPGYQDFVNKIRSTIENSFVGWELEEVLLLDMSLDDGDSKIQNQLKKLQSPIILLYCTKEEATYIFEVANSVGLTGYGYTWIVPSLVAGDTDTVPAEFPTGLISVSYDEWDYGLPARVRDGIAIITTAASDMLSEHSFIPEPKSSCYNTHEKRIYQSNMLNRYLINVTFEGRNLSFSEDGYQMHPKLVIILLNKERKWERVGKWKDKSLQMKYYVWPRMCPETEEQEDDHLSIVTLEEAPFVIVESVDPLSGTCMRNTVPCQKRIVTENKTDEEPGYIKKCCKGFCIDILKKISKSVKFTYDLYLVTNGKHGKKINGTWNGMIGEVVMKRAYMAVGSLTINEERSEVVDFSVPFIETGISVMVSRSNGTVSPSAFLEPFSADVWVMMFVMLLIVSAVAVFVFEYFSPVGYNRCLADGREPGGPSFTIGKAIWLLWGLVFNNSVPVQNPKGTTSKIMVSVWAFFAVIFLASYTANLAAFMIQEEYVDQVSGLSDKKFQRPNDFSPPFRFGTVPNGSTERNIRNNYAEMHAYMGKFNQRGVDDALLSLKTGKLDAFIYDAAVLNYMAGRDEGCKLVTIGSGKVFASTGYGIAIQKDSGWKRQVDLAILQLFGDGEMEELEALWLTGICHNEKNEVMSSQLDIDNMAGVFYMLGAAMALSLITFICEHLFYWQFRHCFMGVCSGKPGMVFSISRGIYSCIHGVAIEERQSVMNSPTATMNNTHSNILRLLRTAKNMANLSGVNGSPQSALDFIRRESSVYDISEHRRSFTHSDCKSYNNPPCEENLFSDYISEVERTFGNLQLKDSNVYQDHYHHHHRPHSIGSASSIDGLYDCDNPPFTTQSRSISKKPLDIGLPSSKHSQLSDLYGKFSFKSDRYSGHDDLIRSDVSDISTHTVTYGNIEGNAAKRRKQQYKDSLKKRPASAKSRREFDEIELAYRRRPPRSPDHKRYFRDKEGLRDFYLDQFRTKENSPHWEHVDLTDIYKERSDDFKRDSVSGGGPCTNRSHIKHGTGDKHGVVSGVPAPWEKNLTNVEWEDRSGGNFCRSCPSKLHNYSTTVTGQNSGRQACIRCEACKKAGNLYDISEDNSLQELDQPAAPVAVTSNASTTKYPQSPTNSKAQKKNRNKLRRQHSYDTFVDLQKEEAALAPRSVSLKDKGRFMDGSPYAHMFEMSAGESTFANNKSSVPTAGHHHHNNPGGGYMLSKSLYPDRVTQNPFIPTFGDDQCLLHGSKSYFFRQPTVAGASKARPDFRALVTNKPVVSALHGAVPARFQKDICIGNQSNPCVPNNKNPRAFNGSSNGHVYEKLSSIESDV
T4 sequence (Q12879 23-1464, other chains not shown): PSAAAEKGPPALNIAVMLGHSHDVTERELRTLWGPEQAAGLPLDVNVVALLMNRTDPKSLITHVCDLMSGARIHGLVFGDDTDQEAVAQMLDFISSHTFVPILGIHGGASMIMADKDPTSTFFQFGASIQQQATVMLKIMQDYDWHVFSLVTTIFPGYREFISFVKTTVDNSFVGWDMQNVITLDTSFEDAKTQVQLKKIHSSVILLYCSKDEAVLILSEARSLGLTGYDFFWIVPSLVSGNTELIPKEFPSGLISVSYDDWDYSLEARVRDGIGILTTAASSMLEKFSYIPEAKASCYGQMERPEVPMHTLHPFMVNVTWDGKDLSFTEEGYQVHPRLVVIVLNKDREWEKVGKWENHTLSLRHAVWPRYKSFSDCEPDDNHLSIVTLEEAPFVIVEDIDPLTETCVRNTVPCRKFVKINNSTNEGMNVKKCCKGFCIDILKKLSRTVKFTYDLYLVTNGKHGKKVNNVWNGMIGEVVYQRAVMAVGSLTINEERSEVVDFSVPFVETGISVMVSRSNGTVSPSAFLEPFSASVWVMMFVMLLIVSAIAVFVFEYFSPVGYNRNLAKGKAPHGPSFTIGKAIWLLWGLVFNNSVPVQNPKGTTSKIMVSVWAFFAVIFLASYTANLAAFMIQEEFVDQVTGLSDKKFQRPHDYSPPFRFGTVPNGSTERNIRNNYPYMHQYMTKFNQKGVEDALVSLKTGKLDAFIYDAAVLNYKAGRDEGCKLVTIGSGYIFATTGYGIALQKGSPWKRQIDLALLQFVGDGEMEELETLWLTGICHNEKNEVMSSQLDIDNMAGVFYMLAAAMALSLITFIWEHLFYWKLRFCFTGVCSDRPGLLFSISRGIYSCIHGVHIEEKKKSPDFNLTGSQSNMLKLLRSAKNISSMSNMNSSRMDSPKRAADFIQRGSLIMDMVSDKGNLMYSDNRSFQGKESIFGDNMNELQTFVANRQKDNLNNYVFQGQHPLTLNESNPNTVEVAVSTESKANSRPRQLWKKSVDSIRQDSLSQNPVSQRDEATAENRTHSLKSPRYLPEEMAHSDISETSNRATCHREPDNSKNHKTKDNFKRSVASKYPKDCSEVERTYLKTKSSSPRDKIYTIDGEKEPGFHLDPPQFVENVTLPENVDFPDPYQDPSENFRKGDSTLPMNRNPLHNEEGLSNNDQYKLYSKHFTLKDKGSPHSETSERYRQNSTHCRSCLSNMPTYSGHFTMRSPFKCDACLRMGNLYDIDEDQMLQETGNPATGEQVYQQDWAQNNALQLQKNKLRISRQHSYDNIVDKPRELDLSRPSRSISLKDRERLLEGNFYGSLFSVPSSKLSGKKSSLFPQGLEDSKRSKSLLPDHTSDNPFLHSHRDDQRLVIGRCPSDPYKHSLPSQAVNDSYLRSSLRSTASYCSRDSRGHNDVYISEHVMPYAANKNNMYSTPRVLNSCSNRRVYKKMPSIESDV
T3 sequence (P06276 29-602): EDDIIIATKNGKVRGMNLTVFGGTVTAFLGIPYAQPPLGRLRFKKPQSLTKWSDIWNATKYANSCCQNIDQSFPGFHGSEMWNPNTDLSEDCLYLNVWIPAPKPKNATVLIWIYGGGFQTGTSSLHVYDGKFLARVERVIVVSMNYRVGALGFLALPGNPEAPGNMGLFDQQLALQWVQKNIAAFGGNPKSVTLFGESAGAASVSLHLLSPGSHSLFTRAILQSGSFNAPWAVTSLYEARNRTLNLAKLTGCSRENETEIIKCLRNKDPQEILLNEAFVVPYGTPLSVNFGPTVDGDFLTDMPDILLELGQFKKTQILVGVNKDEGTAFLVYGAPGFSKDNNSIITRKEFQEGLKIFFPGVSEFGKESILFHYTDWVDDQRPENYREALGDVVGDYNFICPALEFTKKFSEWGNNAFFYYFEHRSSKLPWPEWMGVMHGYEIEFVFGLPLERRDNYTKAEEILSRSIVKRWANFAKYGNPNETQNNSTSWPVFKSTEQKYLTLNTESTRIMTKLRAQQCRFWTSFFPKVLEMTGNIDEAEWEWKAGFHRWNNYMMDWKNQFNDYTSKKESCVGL
T1 sequence (P22303 32-614): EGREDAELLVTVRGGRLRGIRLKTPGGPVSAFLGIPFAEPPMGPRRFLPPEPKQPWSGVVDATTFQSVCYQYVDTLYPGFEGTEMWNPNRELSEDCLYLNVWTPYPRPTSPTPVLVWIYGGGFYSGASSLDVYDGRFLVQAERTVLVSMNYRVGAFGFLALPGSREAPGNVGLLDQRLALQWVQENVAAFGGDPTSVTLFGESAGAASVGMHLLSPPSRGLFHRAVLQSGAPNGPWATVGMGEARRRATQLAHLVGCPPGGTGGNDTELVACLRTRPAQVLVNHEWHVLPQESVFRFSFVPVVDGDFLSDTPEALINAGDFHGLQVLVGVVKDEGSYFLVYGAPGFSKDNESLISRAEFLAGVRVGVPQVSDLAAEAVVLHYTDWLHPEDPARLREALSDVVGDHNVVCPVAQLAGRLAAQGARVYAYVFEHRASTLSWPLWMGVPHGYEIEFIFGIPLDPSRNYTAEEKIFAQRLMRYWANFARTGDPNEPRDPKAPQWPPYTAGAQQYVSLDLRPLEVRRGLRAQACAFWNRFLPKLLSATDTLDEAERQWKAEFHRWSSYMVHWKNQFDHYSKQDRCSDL

Compound | IC50 [1] | inhibition at 3 µM (hGluN1/hGluN2B [2]) | IC50 [3] | RI (%) at 3 μM (hGluN1/hGluN2A [4]) | inhibition at 3 µM (hGluN1/hGluN2A [5]) | RI (%) at 3 μM (hGluN1/hGluN2B [6])
CNC1c2ccccc2CCc2ccccc21 [3a, N-methyl-10,11-dihydro-5H-dibenzo[a,d][7]annulen-5-amine hydrochloride] | > 100 µM | 71 ± 1.75% | > 100 µM | 82.34 ± 3.25% |  | 
CCNC1c2ccccc2CCc2ccccc21 [3b, N-ethyl-10,11-dihydro-5H-dibenzo[a,d][7]annulen-5-amine hydrochloride] | > 100 µM | 51.8 ± 3.39% | > 100 µM |  | 34 ± 4.6% | 
CC(C)NC1c2ccccc2CCc2ccccc21 [3c, N-isopropyl-10,11-dihydro-5H-dibenzo[a,d][7]annulen-5-amine hydrochloride] | > 100 µM | 76.9 ± 3.57% | > 100 µM |  | 52.2 ± 5.23% | 
c1ccc2c(c1)CCc1ccccc1C2NC1CC1 [3d, N-cyclopropyl-10,11-dihydro-5H-dibenzo[a,d][7]annulen-5-amine hydrochloride] | > 100 µM | 53.6 ± 3.16% | > 100 µM |  | 40.1 ± 3.42% | 
CCCCNC1c2ccccc2CCc2ccccc21 [3e, N-butyl-10,11-dihydro-5H-dibenzo[a,d][7]annulen-5-amine hydrochloride] | > 100 µM | 85.8 ± 2.19% | > 100 µM |  | 76.4 ± 4.03% | 
CC(C)CNC1c2ccccc2CCc2ccccc21 [3f, N-isobutyl-10,11-dihydro-5H-dibenzo[a,d][7]annulen-5-amine hydrochloride] | > 100 µM |  | > 100 µM |  | 76.8 ± 2.99% | 91.62 ± 0.99%
c1ccc2c(c1)CCc1ccccc1C2NC1CCCCC1 [3g, N-cyclohexyl-10,11-dihydro-5H-dibenzo[a,d][7]annulen-5-amine hydrochloride] |  |  | 14.4 ± 1.3 µM |  | 79.4 ± 2.06% | 85.95 ± 3.13%
c1ccc2c(c1)CCc1ccccc1C2N1CCCCC1 [3h, 1-(10,11-dihydro-5H-dibenzo[a,d][7]annulen-5-yl)piperidine hydrochloride] | > 100 µM | 5.2 ± 1.56% | > 100 µM |  | 5.4 ± 1.39% | 
c1ccc2c(c1)CCc1ccccc1C2N1CCOCC1 [3i, 4-(10,11-dihydro-5H-dibenzo[a,d][7]annulen-5-yl)morpholine hydrochloride] | > 100 µM | 3.43 ± 1.33% | > 100 µM |  | 6.78 ± 1.67% | 
COCCNC1c2ccccc2CCc2ccccc21 [3j, N-(2-methoxyethyl)-10,11-dihydro-5H-dibenzo[a,d][7]annulen-5-amine hydrochloride] | > 100 µM | 66.6 ± 3.9% | > 100 µM |  | 34.9 ± 4.8% | 
c1ccc2c(c1)CCc1ccccc1C2N1CCCC1 [3k, 1-(10,11-dihydro-5H-dibenzo[a,d][7]annulen-5-yl)pyrrolidine hydrochloride] | > 100 µM | 62.1 ± 3.44% | > 100 µM |  | 49.8 ± 3.27% | 
CN1CCN(C2c3ccccc3CCc3ccccc32)CC1 [3m, 1-(10,11-dihydro-5H-dibenzo[a,d][7]annulen-5-yl)-4-methylpiperazine dihydrochloride] | > 100 µM | 9.49 ± 2.17% | > 100 µM |  | 9.7 ± 2.41% | 
CCN(CC)C1c2ccccc2CCc2ccccc21 [3n, N,N-diethyl-10,11-dihydro-5H-dibenzo[a,d][7]annulen-5-amine hydrochloride] | > 100 µM | 75 ± 3.14% | > 100 µM |  | 68.4 ± 4.84% | 
CCN1CCN(C2c3ccccc3CCc3ccccc32)CC1 [3o, 1-(10,11-dihydro-5H-dibenzo[a,d][7]annulen-5-yl)-4-ethylpiperazine dihydrochloride] | > 100 µM | 5.22 ± 1.49% | > 100 µM |  | 7.64 ± 0.84% | 
CNC1c2ccccc2C=Cc2ccccc21 [6a, N-methyl-5H-dibenzo[a,d][7]annulen-5-amine hydrochloride] | > 100 µM | 68.9 ± 3.57% | > 100 µM |  | 54.3 ± 3.11% | 
CCNC1c2ccccc2C=Cc2ccccc21 [6b, N-ethyl-5H-dibenzo[a,d][7]annulen-5-amine hydrochloride] | > 100 µM | 59.9 ± 3.15% | > 100 µM |  | 39.9 ± 4.78% | 
CC(C)NC1c2ccccc2C=Cc2ccccc21 [6c, N-isopropyl-5H-dibenzo[a,d][7]annulen-5-amine hydrochloride] | > 100 µM | 76 ± 2.22% | > 100 µM |  | 75.6 ± 2.36% | 
C1=Cc2ccccc2C(NC2CC2)c2ccccc21 [6d, N-cyclopropyl-5H-dibenzo[a,d][7]annulen-5-amine hydrochloride] | > 100 µM | 57.2 ± 3.27% | > 100 µM |  | 45 ± 3.55% | 
CCCCNC1c2ccccc2C=Cc2ccccc21 [6e, N-butyl-5H-dibenzo[a,d][7]annulen-5-amine hydrochloride] | > 100 µM | 79.2 ± 2.84% | > 100 µM |  | 81.1 ± 2.62% | 
C1=Cc2ccccc2C(NC2CCCCC2)c2ccccc21 [6g, N-cyclohexyl-5H-dibenzo[a,d][7]annulen-5-amine hydrochloride] |  |  | 8.5 ± 0.4 µM | 92.12 ± 1.48% |  | 92.37 ± 1.82%
C1=Cc2ccccc2C(N2CCOCC2)c2ccccc21 [6i, 4-(5H-dibenzo[a,d][7]annulen-5-yl)morpholine hydrochloride] | > 100 µM | 57.6 ± 3.47% | > 100 µM |  | 31.9 ± 4.16% | 
COCCNC1c2ccccc2C=Cc2ccccc21 [6j, N-(2-methoxyethyl)-5H-dibenzo[a,d][7]annulen-5-amine hydrochloride] | > 100 µM | 60 ± 4.39% | > 100 µM |  | 35.6 ± 1.09% | 
C1=Cc2ccccc2C(N2CCCC2)c2ccccc21 [6k, 1-(5H-dibenzo[a,d][7]annulen-5-yl)pyrrolidine hydrochloride] | > 100 µM | 85.53 ± 0.21% | > 100 µM |  | 48.6 ± 2.99% | 
OCCNC1c2ccccc2C=Cc2ccccc21 [6l, 2-((5H-dibenzo[a,d][7]annulen-5-yl)amino)ethanol hydrochloride] | > 100 µM | 48.8 ± 4.13% | > 100 µM |  | 38.2 ± 3.8% | 
